This note sets out measurements from PubChem BioAssay (NCI).

In general, GI50 refers to the concentration at which growth is held to half of that of the control. What is called TGI is the concentration at which net growth stops. The low end stands for greater sensitivity of the cells, the high end for lower sensitivity of the cells.

Among the test systems are A498 renal; BT-549 breast; HS 578T breast; NCI-H23 lung; OVCAR-5 ovarian; SK-MEL-2 melanoma; SNB-75 CNS.
Common to all, as to test: DTP human tumour cell line panel, 48 h

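How tested: cells in 96-well plates exposed to compound for 48 hours at five concentrations. Here, GI50 denotes the concentration required for 50% inhibition of growth. TGI: concentration producing complete growth inhibition.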 Bounds are passed on as bounds.

As for `COc1ccc(/C=C2\N=C3SC=C(N)N3C2=O)cc1`, the GI50 with A498 renal was 0.177 µM; in the assay on BT-549 breast, 0.73 µM; in the assay on HS 578T breast, 1.19 µM; in the assay with NCI-H23 lung, 1.67 µM; with OVCAR-5 ovarian, 2.13 µM; with SK-MEL-2 melanoma, 1.02 µM. In addition, the GI50 with SNB-75 CNS is 0.757 µM. The concentration for total growth inhibition (TGI) turned out to be 1.37 µM with A498 renal; 3.84 µM with BT-549 breast; 5.56 µM in the assay with HS 578T breast; 8.47 µM in the assay on NCI-H23 lung; 12 µM in the assay on OVCAR-5 ovarian; 2.75 µM in the assay with SK-MEL-2 melanoma. The TGI in the assay on SNB-75 CNS is 7.61 µM.
With `O=c1[nH]c(-c2ccc(C(F)(F)F)cc2)nc2c1CSCC2`, the GI50 is 22.9 µM with A498 renal; over 94.3 µM in the assay on BT-549 breast; 45.8 µM in the assay on HS 578T breast; 41.9 µM in the assay with NCI-H23 lung; 79.9 µM in the assay with OVCAR-5 ovarian; 35.6 µM with SK-MEL-2 melanoma. Moreover, in the assay with SNB-75 CNS, the GI50 is 21.2 µM. For the same compound, the total growth inhibition concentration (TGI) in the assay on A498 renal was 97.3 µM; in the assay with BT-549 breast, over 100 µM; in the assay on HS 578T breast, over 100 µM; with NCI-H23 lung it was over 100 µM; with OVCAR-5 ovarian, over 100 µM; with SK-MEL-2 melanoma, over 93.2 µM. Also, the TGI in the assay with SNB-75 CNS is 56.2 µM.
In the case of `O=C(/C=C/c1ccco1)Nc1ncc(Cc2ccc(F)cc2)s1`, the GI50 in the assay on A498 renal was 0.027 µM; with BT-549 breast it was 0.368 µM; with HS 578T breast, 0.124 µM; in the assay with NCI-H23 lung, 0.234 µM; in the assay on OVCAR-5 ovarian, 0.244 µM; with SK-MEL-2 melanoma it was 0.115 µM. Besides, the concentration for 50% growth inhibition (GI50) in the assay with SNB-75 CNS was 0.0547 µM. Also, the total growth inhibition concentration (TGI) with A498 renal is 0.0975 µM; with BT-549 breast, over 25.3 µM; in the assay on HS 578T breast, over 100 µM; in the assay on NCI-H23 lung, over 100 µM; in the assay on OVCAR-5 ovarian it was over 100 µM; in the assay on SK-MEL-2 melanoma, over 100 µM. Also, the total growth inhibition concentration (TGI) in the assay with SNB-75 CNS is 0.706 µM.
As for `c1ccc(-c2nc(N3CCNCC3)c3nc(-c4ccccc4)oc3n2)cc1`, the GI50 with A498 renal is 1.42 µM; with BT-549 breast it was 1.67 µM; in the assay with HS 578T breast, 1.87 µM; in the assay on NCI-H23 lung it was 1.76 µM; with OVCAR-5 ovarian, 1.7 µM; in the assay on SK-MEL-2 melanoma, 1.91 µM. For the same compound, the GI50 in the assay with SNB-75 CNS is 1.26 µM. In addition, the TGI in the assay on A498 renal amounted to 2.76 µM; in the assay on BT-549 breast, 3.24 µM; in the assay with HS 578T breast, 4.11 µM; in the assay with NCI-H23 lung, 3.32 µM; with OVCAR-5 ovarian, 3.15 µM; with SK-MEL-2 melanoma, 3.74 µM. In addition, the TGI with SNB-75 CNS is 2.52 µM.
Take `CCNCCNc1cc(-c2ccc(F)cc2)c(C#N)c2nc3ccccc3n12`: the GI50 is 4.79 µM in the assay on A498 renal; 4.53 µM in the assay with BT-549 breast; 3.15 µM in the assay with HS 578T breast; 13.7 µM with NCI-H23 lung; 4.45 µM in the assay on OVCAR-5 ovarian; 14.2 µM in the assay on SK-MEL-2 melanoma. Further, the GI50 with SNB-75 CNS is 1.81 µM. For the same compound, the TGI with A498 renal turned out to be 17.2 µM; in the assay with BT-549 breast, 15.5 µM; in the assay on HS 578T breast, 12.5 µM; in the assay on NCI-H23 lung, 29 µM; in the assay with OVCAR-5 ovarian, 15.9 µM; in the assay on SK-MEL-2 melanoma, 28.3 µM. The compound also showed a TGI in the assay on SNB-75 CNS of 4.39 µM.
In the case of `CC(C)(C)CC(C)(C)c1ccc(OCCOCCSC(=N)N)cc1`, the GI50 was 3.84 µM in the assay with BT-549 breast; 2.28 µM in the assay on HS 578T breast; 2.85 µM in the assay with NCI-H23 lung; 2.4 µM with OVCAR-5 ovarian; 2.02 µM with SK-MEL-2 melanoma; 1.37 µM with SNB-75 CNS. Also, the TGI amounted to 16 µM in the assay with BT-549 breast; 6.14 µM with HS 578T breast; 7.38 µM in the assay on NCI-H23 lung; 6.5 µM in the assay on OVCAR-5 ovarian; 3.49 µM in the assay on SK-MEL-2 melanoma; 3.85 µM with SNB-75 CNS.
Take `C[C@H]1[C@@H](OCC(CO[C@H]2O[C@@H]3O[C@@]4(C)CC[C@H]5[C@H](C)CC[C@@H]([C@H]2C)[C@@]35OO4)=NOCC(=O)O)OC2O[C@@]3(C)CC[C@H]4[C@H](C)CC[C@@H]1[C@@]24OO3` (some centres undefined): the GI50 in the assay with A498 renal is 1.76 µM; in the assay with BT-549 breast, 0.473 µM; in the assay on HS 578T breast, 0.719 µM; in the assay on NCI-H23 lung, under 0.0283 µM; in the assay with OVCAR-5 ovarian, 0.497 µM; in the assay on SK-MEL-2 melanoma it was 0.346 µM. Besides, the GI50 in the assay with SNB-75 CNS was 0.698 µM. The concentration for total growth inhibition (TGI) stood at 19.6 µM with A498 renal; 20.7 µM with BT-549 breast; 22.4 µM in the assay on HS 578T breast; 18.1 µM in the assay on NCI-H23 lung; 30.3 µM in the assay with OVCAR-5 ovarian; 14.8 µM in the assay on SK-MEL-2 melanoma. Further, in the assay with SNB-75 CNS, the TGI came out at 15.4 µM.
As for `Fc1ccc(-c2ncn(C3CCNCC3)c2-c2ccnc(Oc3cccc(F)c3)n2)cc1`, the GI50 in the assay with A498 renal was over 25 µM; with BT-549 breast, over 24 µM; in the assay with HS 578T breast it was over 12 µM; in the assay on OVCAR-5 ovarian it was 22.2 µM; in the assay with SK-MEL-2 melanoma it was over 25 µM; in the assay on SNB-75 CNS, 14.8 µM. Also, the concentration for total growth inhibition (TGI) was over 25 µM with A498 renal; over 25 µM in the assay with BT-549 breast; 24.8 µM in the assay on HS 578T breast; over 25 µM in the assay on OVCAR-5 ovarian; over 25 µM in the assay on SK-MEL-2 melanoma; over 25 µM in the assay on SNB-75 CNS.
As for `O=Nc1c(O)ccc2ccccc12`, the GI50 was 16.7 µM in the assay with A498 renal; 12.2 µM with BT-549 breast; 2.45 µM in the assay on HS 578T breast; 1.83 µM in the assay with OVCAR-5 ovarian; 2.12 µM with SK-MEL-2 melanoma; 2.52 µM in the assay with SNB-75 CNS. For the same compound, the TGI in the assay with A498 renal was 31.4 µM; in the assay on BT-549 breast, 24.9 µM; in the assay on HS 578T breast it was 8.24 µM; in the assay on OVCAR-5 ovarian, 3.44 µM; in the assay on SK-MEL-2 melanoma it was 4.36 µM; with SNB-75 CNS, 14.5 µM.
Turning to `O=Cc1coc2ccccc2c1=O`, the TGI with A498 renal was over 100 µM; in the assay on BT-549 breast, 36.8 µM; in the assay on HS 578T breast, 53.4 µM; in the assay with NCI-H23 lung, 70.7 µM; in the assay with OVCAR-5 ovarian, 56.2 µM; with SNB-75 CNS it was 0.0768 µM.
For the compound `Cn1c(=O)c2[nH]c(COc3ccc(C(C)(C)C)cc3)nc2n(C)c1=O`, the GI50 is 4.94 µM with A498 renal, 20.2 µM with HS 578T breast, 5.29 µM with NCI-H23 lung and 24.2 µM in the assay on OVCAR-5 ovarian. The total growth inhibition concentration (TGI) was 60.1 µM with A498 renal, over 100 µM with HS 578T breast, over 100 µM in the assay with NCI-H23 lung and over 100 µM with OVCAR-5 ovarian.
